Test results from patent EP0093484A2, “Antibacterial monic acid derivatives” (BEECHAM GROUP PLC, priority 1982, dated 1983).
Converted amounts (≈) assume the structure as drawn.

How the values were obtained:
[1] = test system: M. suipneumoniae NCTC 10110; assay: Anti-mycoplasmal activity, MIC in Friis broth agarose; assay type: cell-based; conditions: Mesomycoplasma hyopneumoniae, NCTC10110, 144 h, Friis broth solidified with 0.9% agarose, 6 days incubation at 37°C, read-out: MIC
Strep. dysgalactiae SPD1 = assay: Veterinary bacteria, MIC by two fold serial dilution in agar; conditions: Streptococcus dysgalactiae, SPD1, 18 h
Protocol: (§1) The activity of the compounds of the Examples against various organisms important in veterinary infections was determined using two fold serial dilutions in Diagnostic Sensitivity Test Agar inoculated with 10^4 organisms.

[2] = test system: Staph. aureus 152 (pen. sens.); assay: as above; conditions: Staphylococcus aureus, 18 h
Protocol: as §1

[3] = test system: Haemophilus influenzae Wy21; assay: Human bacteria, MIC by serial dilution in nutrient agar; assay type: cell-based; conditions: nutrient agar with 5% chocolated horse blood, 18 hours at 37°C, read-out: MIC
E. coli NCTC 10418 [4] = assay: as above; assay type: cell-based; conditions: Escherichia coli, NCTC10418; E. coli NCTC 10418 (human panel); nutrient agar with 5% chocolated horse blood; 18 hours at 37°C; read-out: MIC
M. suipneumoniae UCD 1 = assay: Anti-mycoplasmal activity, MIC in Friis broth agarose; assay type: cell-based; conditions: Mesomycoplasma hyopneumoniae, UCD1, 144 h, Friis broth solidified with 0.9% agarose, 6 days incubation at 37°C, read-out: MIC
M. pneumoniae ATCC 15492 = assay: as above; assay type: cell-based; conditions: Mycoplasmoides pneumoniae, ATCC15492, 144 h, Friis broth solidified with 0.9% agarose, 6 days incubation at 37°C, read-out: MIC
[5] = test system: M. hyosynoviae ATCC 25591; assay: as above; assay type: cell-based; conditions: 144 h, Friis broth solidified with 0.9% agarose, 6 days incubation at 37°C, read-out: MIC
Strep. spp. 64/848-C = assay: Human bacteria, MIC by serial dilution in nutrient agar; assay type: cell-based; conditions: nutrient agar with 5% chocolated horse blood, 18 hours at 37°C, read-out: MIC
M. suipneumoniae MS16 = assay: Anti-mycoplasmal activity, MIC in Friis broth agarose; assay type: cell-based; conditions: Mesomycoplasma hyopneumoniae, 144 h, Friis broth solidified with 0.9% agarose, 6 days incubation at 37°C, read-out: MIC
P. mirabilis 889 = assay: Human bacteria, MIC by serial dilution in nutrient agar; assay type: cell-based; conditions: Proteus mirabilis, nutrient agar with 5% chocolated horse blood, 18 hours at 37°C, read-out: MIC
Bord. bronchiseptica BO9 = assay: Veterinary bacteria, MIC by two fold serial dilution in agar; conditions: Bordetella bronchiseptica, BO9, 18 h
Protocol: as §1

[6] = test system: M. bovigenitalium ATCC 14173; assay: Anti-mycoplasmal activity, MIC in Friis broth agarose; assay type: cell-based; conditions: 144 h, Friis broth solidified with 0.9% agarose, 6 days incubation at 37°C, read-out: MIC
M. suipneumoniae JF 435 = assay: as above; assay type: cell-based; conditions: Mesomycoplasma hyopneumoniae, JF435, 144 h, Friis broth solidified with 0.9% agarose, 6 days incubation at 37°C, read-out: MIC
Staph. aureus Russell = assay: Human bacteria, MIC by serial dilution in nutrient agar; assay type: cell-based; conditions: Staphylococcus aureus, nutrient agar with 5% chocolated horse blood, 18 hours at 37°C, read-out: MIC
Staph. aureus W2827 = assay: as above; assay type: cell-based; conditions: Staphylococcus aureus, nutrient agar with 5% chocolated horse blood, 18 hours at 37°C, read-out: MIC
[7] = test system: Haemophilus influenzae Q1; assay: as above; assay type: cell-based; conditions: nutrient agar with 5% chocolated horse blood, 18 hours at 37°C, read-out: MIC
Bacillus subtilis 6633 = assay: as above; assay type: cell-based; conditions: nutrient agar with 5% chocolated horse blood, 18 hours at 37°C, read-out: MIC
[8] = test system: Strep. suis (group D) SPS11; assay: Veterinary bacteria, MIC by two fold serial dilution in agar; conditions: Streptococcus suis, 18 h
Protocol: as §1

[9] = test system: Pasteurella multocida 1633; assay: Human bacteria, MIC by serial dilution in nutrient agar; assay type: cell-based; conditions: nutrient agar with 5% chocolated horse blood, 18 hours at 37°C, read-out: MIC
Strep. uberis SPU1 = assay: Veterinary bacteria, MIC by two fold serial dilution in agar; conditions: Streptococcus uberis, SPU1, 18 h
Protocol: as §1

[10] = test system: Strep. pyogenes R80/421-A; assay: Human bacteria, MIC by serial dilution in nutrient agar; assay type: cell-based; conditions: Streptococcus pyogenes, nutrient agar with 5% chocolated horse blood, 18 hours at 37°C, read-out: MIC
E. coli NCTC 10418 [11] = assay: Veterinary bacteria, MIC by two fold serial dilution in agar; conditions: Escherichia coli, NCTC10418, 18 h
Protocol: as §1

Strep. agalactiae SPA1 = assay: as above; conditions: Streptococcus agalactiae, SPA1, 18 h
Protocol: as §1

Past. multocida PA2 = assay: as above; conditions: Pasteurella multocida, PA2, 18 h
Protocol: as §1

[12] = test system: Corynebacterium xerosis 9755; assay: Human bacteria, MIC by serial dilution in nutrient agar; assay type: cell-based; conditions: nutrient agar with 5% chocolated horse blood, 18 hours at 37°C, read-out: MIC
M. suipneumoniae HK(2) = assay: Anti-mycoplasmal activity, MIC in Friis broth agarose; assay type: cell-based; conditions: Mesomycoplasma hyopneumoniae, 144 h, Friis broth solidified with 0.9% agarose, 6 days incubation at 37°C, read-out: MIC
E. coli ESS = assay: Human bacteria, MIC by serial dilution in nutrient agar; assay type: cell-based; conditions: Escherichia coli, nutrient agar with 5% chocolated horse blood, 18 hours at 37°C, read-out: MIC
[13] = test system: M. suipneumoniae J2206/183b; assay: Anti-mycoplasmal activity, MIC in Friis broth agarose; assay type: cell-based; conditions: Mesomycoplasma hyopneumoniae, 144 h, Friis broth solidified with 0.9% agarose, 6 days incubation at 37°C, read-out: MIC
Sarcina lutea 8340 = assay: Human bacteria, MIC by serial dilution in nutrient agar; assay type: cell-based; conditions: Micrococcus luteus, nutrient agar with 5% chocolated horse blood, 18 hours at 37°C, read-out: MIC
Staph. aureus Oxford = assay: Veterinary bacteria, MIC by two fold serial dilution in agar; conditions: Staphylococcus aureus, 18 h
Protocol: as §1

Past. multocida PA1 = assay: as above; conditions: Pasteurella multocida, PA1, 18 h
Protocol: as §1

Strep. faecalis I = assay: Human bacteria, MIC by serial dilution in nutrient agar; assay type: cell-based; conditions: Enterococcus faecalis, nutrient agar with 5% chocolated horse blood, 18 hours at 37°C, read-out: MIC
M. hyorhinis ATCC 23234 = assay: Anti-mycoplasmal activity, MIC in Friis broth agarose; assay type: cell-based; conditions: Mesomycoplasma hyorhinis, ATCC23234, 144 h, Friis broth solidified with 0.9% agarose, 6 days incubation at 37°C, read-out: MIC
K. aerogenes A = assay: Human bacteria, MIC by serial dilution in nutrient agar; assay type: cell-based; conditions: Klebsiella aerogenes, nutrient agar with 5% chocolated horse blood, 18 hours at 37°C, read-out: MIC
[14] = test system: Corynebacterium pyogenes CY1; assay: Veterinary bacteria, MIC by two fold serial dilution in agar; conditions: CY1, 18 h
Protocol: as §1

M. suipneumoniae Str. 11 = assay: Anti-mycoplasmal activity, MIC in Friis broth agarose; assay type: cell-based; conditions: Mesomycoplasma hyopneumoniae, 144 h, Friis broth solidified with 0.9% agarose, 6 days incubation at 37°C, read-out: MIC
M. suipneumoniae LABER = assay: as above; assay type: cell-based; conditions: Mesomycoplasma hyopneumoniae, 144 h, Friis broth solidified with 0.9% agarose, 6 days incubation at 37°C, read-out: MIC
[15] = test system: M. suipneumoniae ATCC 25095; assay: as above; assay type: cell-based; conditions: Mesomycoplasma hyopneumoniae, ATCC25095, 144 h, Friis broth solidified with 0.9% agarose, 6 days incubation at 37°C, read-out: MIC
M. bovis NCTC 10131 = assay: microbe, parasite or virus in culture; assay type: cell-based; conditions: NCTC10131, 144 h

Structure (SMILES): CSc1ccc(COC(=O)C=C(C)CC2OCC(CC3OC3C(C)C(C)O)C(O)C2O)cc1 (stereo not shown) [Example 1, p-Methylthiobenzyl monate A]
- MIC [1]: 0.5 µg/mL (≈ 1.04 µM)
- MIC (Strep. dysgalactiae SPD1): 0.156 µg/mL (≈ 0.325 µM)
- MIC [2]: 0.156 µg/mL (≈ 0.325 µM)
- MIC [3]: 0.25 µg/mL (≈ 0.52 µM)
- MIC (E. coli NCTC 10418 [4]): 100 µg/mL (≈ 208 µM)
- MIC (M. suipneumoniae UCD 1): 0.5 µg/mL (≈ 1.04 µM)
- MIC (M. pneumoniae ATCC 15492): 1 µg/mL (≈ 2.08 µM)
- MIC [5]: 0.05 µg/mL (≈ 0.104 µM)
- MIC (Strep. spp. 64/848-C): 0.5 µg/mL (≈ 1.04 µM)
- MIC (M. suipneumoniae MS16): 0.25 µg/mL (≈ 0.52 µM)
- MIC (P. mirabilis 889): 100 µg/mL (≈ 208 µM)
- MIC (Bord. bronchiseptica BO9): 5 µg/mL (≈ 10.4 µM)
- MIC [6]: 0.025 µg/mL (≈ 0.052 µM)
- MIC (M. suipneumoniae JF 435): 0.5 µg/mL (≈ 1.04 µM)
- MIC (Staph. aureus Russell): 0.5 µg/mL (≈ 1.04 µM)
- MIC (Staph. aureus W2827): 0.5 µg/mL (≈ 1.04 µM)
- MIC [7]: 0.25 µg/mL (≈ 0.52 µM)
- MIC (Bacillus subtilis 6633): 0.25 µg/mL (≈ 0.52 µM)
- MIC [8]: 2.5 µg/mL (≈ 5.2 µM)
- MIC [9]: 1 µg/mL (≈ 2.08 µM)
- MIC (Strep. uberis SPU1): 0.039 µg/mL (≈ 0.0811 µM)
- MIC [10]: 0.1 µg/mL (≈ 0.208 µM)
- MIC (E. coli NCTC 10418 [11]): > 80 µg/mL
- MIC (Strep. agalactiae SPA1): 0.312 µg/mL (≈ 0.649 µM)
- MIC (Past. multocida PA2): 0.156 µg/mL (≈ 0.325 µM)
- MIC [12]: > 100 µg/mL
- MIC (M. suipneumoniae HK(2)): 0.5 µg/mL (≈ 1.04 µM)
- MIC (E. coli ESS): 1 µg/mL (≈ 2.08 µM)
- MIC [13]: 0.5 µg/mL (≈ 1.04 µM)
- MIC (Sarcina lutea 8340): > 100 µg/mL
- MIC (Staph. aureus Oxford): 0.156 µg/mL (≈ 0.325 µM)
- MIC (Past. multocida PA1): 0.156 µg/mL (≈ 0.325 µM)
- MIC (Strep. faecalis I): 100 µg/mL (≈ 208 µM)
- MIC (M. hyorhinis ATCC 23234): 0.25 µg/mL (≈ 0.52 µM)
- MIC (K. aerogenes A): > 100 µg/mL
- MIC [14]: > 80 µg/mL
- MIC (M. suipneumoniae Str. 11): 0.25 µg/mL (≈ 0.52 µM)
- MIC (M. suipneumoniae LABER): 0.25 µg/mL (≈ 0.52 µM)
- MIC [15]: 0.5 µg/mL (≈ 1.04 µM)
- MIC (M. bovis NCTC 10131): ≤ 0.01 µg/mL
